Reference: ChEMBL document CHEMBL5046262, “Fragment-Based Discovery of MRTX1719, a Synthetic Lethal Inhibitor of the PRMT5•MTA Complex for the Treatment of MTAP-Deleted Cancers” (J Med Chem, 2022)

How the values were obtained:
[1] = Apparent permeability across apical to basolateral side in dog MDCKII-MDR1 cells at 2 uM incubated for 2.5 hrs by LC-MS/MS analysis; type: ADME, cell-based, Canis lupus familiaris, MDCK-MDR1; conditions: for Papp A→B at 2.5 h, 2 µM: MDCK-MDR1
[2] = Efflux ratio of apparent permeability across basolateral to apical side over apical to basolateral side in dog MDCKII-MDR1 cells at 2 uM incubated for 2.5 hrs by LC-MS/MS analysis; type: ADME, cell-based, Canis lupus familiaris, MDCK-MDR1; conditions: MDCK-MDR1
[3] = target: T1, Protein arginine N-methyltransferase 5 (Homo sapiens, UniProt O14744); experiment: Binding affinity to MTA-bound human PRMT5 assessed as dissociation constant by SPR assay
T1 sequence (O14744 whole entry): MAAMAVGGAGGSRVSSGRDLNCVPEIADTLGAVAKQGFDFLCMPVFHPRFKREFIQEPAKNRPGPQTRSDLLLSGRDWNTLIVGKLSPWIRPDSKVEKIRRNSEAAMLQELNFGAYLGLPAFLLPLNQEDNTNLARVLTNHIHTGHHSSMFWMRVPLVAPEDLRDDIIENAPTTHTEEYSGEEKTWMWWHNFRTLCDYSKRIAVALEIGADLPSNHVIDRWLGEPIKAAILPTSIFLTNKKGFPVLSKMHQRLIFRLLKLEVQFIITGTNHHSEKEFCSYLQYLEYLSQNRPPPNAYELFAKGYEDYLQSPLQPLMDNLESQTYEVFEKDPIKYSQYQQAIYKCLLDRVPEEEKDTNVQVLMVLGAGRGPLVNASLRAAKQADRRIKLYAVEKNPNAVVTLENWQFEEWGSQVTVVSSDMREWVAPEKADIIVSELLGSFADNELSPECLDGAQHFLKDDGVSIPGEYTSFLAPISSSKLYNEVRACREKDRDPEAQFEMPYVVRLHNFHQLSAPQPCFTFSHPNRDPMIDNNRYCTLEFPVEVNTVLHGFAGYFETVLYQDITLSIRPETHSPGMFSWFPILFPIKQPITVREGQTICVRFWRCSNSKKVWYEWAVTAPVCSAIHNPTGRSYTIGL

[4] = target: T1, Protein arginine N-methyltransferase 5
[5] = target: T1, Protein arginine N-methyltransferase 5; remark: listed apart in the source
[6] = Intrinsic clearance in human hepatocytes; type: ADME, cell-based, Hepatocyte; conditions: read-out: CLH
[7] = Total clearance in CD-1 mouse at 3 mg/kg, iv measured upto 24 hrs by LC-MS/MS analysis; type: ADME, organism-based; conditions: in vivo
[8] = Volume of distribution at steady state in CD-1 mouse at 3 mg/kg, iv measured upto 24 hrs by LC-MS/MS analysis; type: ADME, organism-based; conditions: in vivo, read-out: Vdss
[9] = Half life in CD-1 mouse at 3 mg/kg, iv measured upto 24 hrs by LC-MS/MS analysis; type: ADME, organism-based; conditions: in vivo
[10] = Cmax in CD-1 mouse at 30 mg/kg, po administered via gavage measured upto 24 hrs by LC-MS/MS analysis; type: ADME, organism-based; design: route oral, dose 30 mg/kg, time <=24; conditions: in vivo
[11] = AUCinfinity in CD-1 mouse at 30 mg/kg, po administered via gavage measured upto 24 hrs by LC-MS/MS analysis; type: ADME, organism-based; design: route oral, dose 30 mg/kg, time <=24; conditions: in vivo
[12] = Oral bioavailability in CD-1 mouse at 30 mg/kg administered via gavage measured upto 24 hrs by LC-MS/MS analysis; type: ADME, organism-based; conditions: in vivo
[13] = Total clearance in beagle dog at 2 mg/kg, iv measured upto 24 hrs by LC-MS/MS analysis; type: ADME, organism-based, Canis lupus familiaris; conditions: in vivo
[14] = Volume of distribution at steady state in beagle dog at 2 mg/kg, iv measured upto 24 hrs by LC-MS/MS analysis; type: ADME, organism-based, Canis lupus familiaris; conditions: in vivo, read-out: Vdss
[15] = Half life in beagle dog at 2 mg/kg, iv measured upto 24 hrs by LC-MS/MS analysis; type: ADME, organism-based, Canis lupus familiaris; conditions: in vivo
[16] = Cmax in beagle dog at 10 mg/kg, po administered via gavage measured upto 24 hrs by LC-MS/MS analysis; type: ADME, organism-based, Canis lupus familiaris; design: route oral, dose 10 mg/kg, time <=24; conditions: in vivo
[17] = AUCinfinity in beagle dog at 10 mg/kg, po administered via gavage measured upto 24 hrs by LC-MS/MS analysis; type: ADME, organism-based, Canis lupus familiaris; design: route oral, dose 10 mg/kg, time <=24; conditions: in vivo
[18] = Oral bioavailability in beagle dog at 10 mg/kg administered via gavage measured upto 24 hrs by LC-MS/MS analysis; type: ADME, organism-based, Canis lupus familiaris; conditions: in vivo
[19] = Total clearance in cynomolgus monkey at 2 mg/kg, iv measured upto 24 hrs by LC-MS/MS analysis; type: ADME, organism-based, Macaca fascicularis; conditions: in vivo
[20] = Volume of distribution at steady state in cynomolgus monkey at 2 mg/kg, iv measured upto 24 hrs by LC-MS/MS analysis; type: ADME, organism-based, Macaca fascicularis; conditions: in vivo, read-out: Vdss
[21] = Half life in cynomolgus monkey at 2 mg/kg, iv measured upto 24 hrs by LC-MS/MS analysis; type: ADME, organism-based, Macaca fascicularis; conditions: in vivo
[22] = Oral bioavailability in cynomolgus monkey at 10 mg/kg administered via gavage measured upto 24 hrs by LC-MS/MS analysis; type: ADME, organism-based, Macaca fascicularis; conditions: in vivo
Lu-99 cell line [23] = experiment: Antitumor activity against MTAP/CDKN2A deleted human Lu-99 cells xenografted in Hsd athymic nude mouse assessed as tumor growth inhibition at 50 mg/kg, po qd administered via oral gavage for 21 days by caliper method relative to control; type: functional; conditions: Lu-99, po, 504 h, time 21 day, read-out: TGI
Lu-99 cell line [24] = experiment: Antitumor activity against MTAP/CDKN2A deleted human Lu-99 cells xenografted in Hsd athymic nude mouse assessed as tumor growth inhibition at 100 mg/kg, po qd administered via oral gavage for 21 days by caliper method relative to control; type: functional; conditions: Lu-99, po, 504 h, time 21 day, read-out: TGI
Lu-99 cell line [25] = experiment: Antitumor activity against MTAP/CDKN2A deleted human Lu-99 cells xenografted in Hsd athymic nude mouse assessed as reduction in PRMT5 mediated SDMA level in tumor at 12.5 to 100 mg/kg, po qd administered via oral gavage for 21 days relative to control; type: functional; design: scale not given: the % may be the effect or the level left; conditions: dose 12.5-100 mg/kg, time 21 day
[26] = Toxicity in Hsd athymic nude mouse xenografted with MTAP/CDKN2A deleted human Lu-99 cells assessed as effect on body weight at 12.5 to 100 mg/kg, po qd administered via oral gavage for 21 days; type: organism-based, Lu-99 cell line; conditions: in vivo, 504 h, dose 12.5-100 mg/kg, time 21 day
[27] = Inhibition of PRMT5 C449S mutant/MEP50 (unknown origin) using Histone H2A as substrate; design: species or system Homo sapiens
[28] = Lipophilicity, logD of the compound at pH 7.4; type: physicochemical; conditions: buffer
[29] = target: T1, Protein arginine N-methyltransferase 5; experiment: Inhibition of PRMT5 methyltransferase activity in MTAP knockout human HCT-116 cells assessed as inhibition of PRMT5- mediated SDMA modification level incubated for 96 hrs by Western blot analysis; type: cell-based
[30] = target: T1, Protein arginine N-methyltransferase 5; experiment: Inhibition of PRMT5 methyltransferase activity in human HCT-116 cells expressing wild type MTAP assessed as inhibition of PRMT5- mediated SDMA modification level incubated for 96 hrs by Western blot analysis; type: cell-based
HCT-116 [31] = experiment: Antiproliferative activity against MTAP knockout human HCT-116 cells assessed as reduction in cell viability incubated for 5 days followed by replacement with fresh medium containing compound and measured after 5 days by CTG assay; type: functional, cell-based
HCT-116 [32] = experiment: Antiproliferative activity against human HCT-116 cells expressing wild type MTAP assessed as reduction in cell viability incubated for 5 days followed by replacement with fresh medium containing compound and measured after 5 days by CTG assay; type: functional, cell-based
[33] = Intrinsic clearance in mouse hepatocytes; type: ADME, cell-based, Hepatocyte; conditions: read-out: CLH
[34] = Selectivity ratio of IC50 for antiproliferative activity against human HCT-116 cells expressing wild type MTAP to IC50 for antiproliferative activity against MTAP knockout human HCT-116 cells; type: functional
Homo sapiens = species on record: Homo sapiens; experiment: Selectivity ratio of IC50 for inhibition of PRMT5 methyltransferase activity in human HCT-116 cells expressing wild type MTAP to IC50 for nhibition of PRMT5 methyltransferase activity in MTAP knockout human HCT-116 cells; type: cell-based

## NCc1nnc(O)c2ccc(-c3ccccc3)cc12
[1]
  Papp A→B at 2.5 h, 2 µM: 16 ×10⁻⁶ cm/s
[2]
  efflux ratio at 2.5 h, 2 µM: 0.8
[3]
  Kd: 1620 nM
[4]
  IC50: 14500 nM
[5]
  IC50: 4300 nM

## Cn1ncc(-c2ccc3c(=O)[nH]nc(CN)c3c2)c1-c1c(F)c(Cl)cc(OC2CC2)c1C#N
[1]
  Papp A→B at 2.5 h, 2 µM: < 0.2 ×10⁻⁶ cm/s
[1]; mdck-mdr1, 2.5 h, 2 µM, 2.5 h
  Papp: 0.3 ×10⁻⁶ cm/s
[6]
  CLint scaled: < 18 mL/min/kg
[7]
  clearance: 83 mL/min/kg
[8]
  Vd: 6.3 L/kg
[9]
  half-life: 1.5 h
[10]
  Cmax: 1160 ng/mL
[11]
  AUC(0-inf): 4850 ng·h/mL
[12]
  bioavailability: 80%
[13]
  clearance: 14 mL/min/kg
[14]
  Vd: 3.4 L/kg
[15]
  half-life: 4.8 h
[16]
  Cmax: 1400 ng/mL
[17]
  AUC(0-inf): 7470 ng·h/mL
[18]
  bioavailability: 59%
[19]
  clearance: 15 mL/min/kg
[20]
  Vd: 2.3 L/kg
[21]
  half-life: 6.1 h
[22]
  bioavailability: 41%
Lu-99 cell line [23]
  inhibition in vivo at 50 mg/kg: 86%
Lu-99 cell line [24]
  inhibition in vivo at 100 mg/kg: 88%
Lu-99 cell line [25]
  Activity: 86%
[26]
  Activity: Non-Toxic
[27]
  IC50: 717 nM

## Cn1cc(-c2ccc3c(=O)[nH]nc(CN)c3c2)cn1
[28]
  logD: -0.5
[1]
  Papp A→B at 2.5 h, 2 µM: 2.3 ×10⁻⁶ cm/s

## Cn1ncc(-c2ccc3c(=O)[nH]nc(CN)c3c2)c1-c1cc(Cl)cc(OC2CC2)c1C#N
[1]
  Papp A→B at 2.5 h, 2 µM: 0.2 ×10⁻⁶ cm/s
[2]
  efflux ratio at 2.5 h, 2 µM: 121
[29]
  IC50: 8 nM
[30]
  IC50: 834 nM
HCT-116 [31]
  IC50: 41 nM
HCT-116 [32]
  IC50: 990 nM
[6]
  CLint scaled: < 18 mL/min/kg
[33]
  CLint scaled: 336 mL/min/kg
[34]
  Ratio IC50: 24

## Cn1ncc(-c2ccc3c(=O)[nH]nc(CN)c3c2)c1-c1cccc(OC2CC2)c1C#N
[1]
  Papp A→B at 2.5 h, 2 µM: 0.3 ×10⁻⁶ cm/s
[2]
  efflux ratio at 2.5 h, 2 µM: 104
[29]
  IC50: 34 nM
[30]
  IC50: 6550 nM
HCT-116 [31]
  IC50: 129 nM
HCT-116 [32]
  IC50: 6820 nM
[6]
  CLint scaled: < 18 mL/min/kg
[33]
  CLint scaled: 237 mL/min/kg
Homo sapiens
  Ratio IC50: 193
[34]
  Ratio IC50: 53
[5]
  IC50: 1000 nM
